Test results taken from ChEMBL document CHEMBL3046253, “Design, synthesis and in vitro PDE4 inhibition activity of certain quinazolinone derivatives for treatment of asthma” (Med Chem Res, 2012).

Biological target: 3',5'-cyclic-AMP phosphodiesterase 4B (Homo sapiens) (UniProt Q07343)
Test: Inhibition of PDE4B2 (unknown origin) using FAM-cAMP as substrate at 10 uM after 60 min by fluorescence polarization assay

Chain of 3',5'-cyclic-AMP phosphodiesterase 4B (Homo sapiens) (Q07343 whole entry): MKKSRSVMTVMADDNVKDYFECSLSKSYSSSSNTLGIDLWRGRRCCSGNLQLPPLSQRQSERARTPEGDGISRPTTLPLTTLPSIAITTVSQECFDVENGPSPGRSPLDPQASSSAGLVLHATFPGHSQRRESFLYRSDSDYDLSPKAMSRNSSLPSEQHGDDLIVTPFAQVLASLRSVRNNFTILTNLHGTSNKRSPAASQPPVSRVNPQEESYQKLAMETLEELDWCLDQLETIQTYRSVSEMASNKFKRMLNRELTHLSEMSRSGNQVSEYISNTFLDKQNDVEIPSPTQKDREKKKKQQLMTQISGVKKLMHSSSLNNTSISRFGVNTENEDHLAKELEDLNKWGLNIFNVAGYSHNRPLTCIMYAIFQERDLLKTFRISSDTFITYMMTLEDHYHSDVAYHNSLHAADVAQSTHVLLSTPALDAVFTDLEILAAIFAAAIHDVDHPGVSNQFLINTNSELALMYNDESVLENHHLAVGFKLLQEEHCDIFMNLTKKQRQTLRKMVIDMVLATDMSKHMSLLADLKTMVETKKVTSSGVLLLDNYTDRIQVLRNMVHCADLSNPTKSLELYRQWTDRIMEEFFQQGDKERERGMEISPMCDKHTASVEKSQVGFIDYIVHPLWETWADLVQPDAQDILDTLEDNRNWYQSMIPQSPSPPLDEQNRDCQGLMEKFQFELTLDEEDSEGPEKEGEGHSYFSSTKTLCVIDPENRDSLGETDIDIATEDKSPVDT

`CCCCN1C(=O)c2ccccc2NC1c1cccc([N+](=O)[O-])c1` (stereo not given) and `CCCCN1C(=O)c2ccccc2NC1c1ccc(O)c(OC)c1` (stereo not given) are the same in inhibition: 15% for the first, 15% for the second.

Going from `CCCCn1c(N/N=C/c2ccc(N(C)C)cc2)nc2ccccc2c1=O` to `CCCCn1c(N/N=C/c2cccc(O)c2)nc2ccccc2c1=O`, the inhibition falls from 19% to 11%.

`CCCCn1c(=O)c2ccccc2n2c(-c3cccc(O)c3)nnc12` and `CCCCn1c(=O)c2ccccc2n2c(-c3cccc([N+](=O)[O-])c3)nnc12` are the same in inhibition: 44% for the first, 44% for the second.

Compared with `CCCCn1c(=O)c2ccccc2n2c(-c3ccc(N(C)C)cc3)nnc12`, `CCCCn1c(=O)c2ccccc2n2c(-c3ccc(O)c(OC)c3)nnc12` is higher in inhibition: 6% for the first, 62% for the second.

Going from `CCCCN1C(=O)c2ccccc2NC1c1ccc(N(C)C)cc1` (stereo not given) to `COc1ccc(C2CNC(=O)C2)cc1OC1CCCC1` (stereo not given), the inhibition rises from 7% to 90%.
